Laboratory results from US9963462B2 (priority 2015, dated 2018).

Assays:
[1] = target: SNAP-hSPR (sepiapterin reductase, SPR) (Homo sapiens, UniProt P35270); assay: biochemical; type: binding; details: terbium labelled SNAP-hSPR / SSZ labelled SNAP-EGFP; read-out: hTR-FRET IC50
[2] = tested on: neuropathic pain-like behaviors after spared nerve injury (SNI); assay: Behavioral pharmacology model: spared nerve injury (SNI), paw withdrawal threshold, von Frey filaments; type: in vivo; details: rat, oral gavage, mechanical endpoint, 4 hrs
Method: (§1) Behavioral Pharmacology Model: Compounds were administered by oral gavage to rats that had undergone one of two nerve injury surgeries: spared nerve injury to injure two of the three peripheral branches of the sciatic nerve or chronic constriction injury of the sciatic nerve. Paw withdrawal thresholds to mechanical stimulation using calibrated von Frey filaments were used as measurement of neuropathic pain-like behaviors.
(§2) Compounds were tested in standard behavioral pharmacology models for pain in rats as described in the literature (see, e.g., Latremoliere et al., Neuron, 86:1393-1406 (2015); Tegeder et al., Nature Medicine, 12:1269-1277 (2006)). Compounds were administered by oral gavage to rats that had undergone one of two nerve injury surgeries: spared nerve injury to injure two of the three peripheral branches of the sciatic nerve (SNI, Decosterd et al., Pain, 87:149-158 (2000)) or chronic constriction injury of the sciatic nerve (CCI, Bennett et al., Pain, 33:87-107 (1988)). Paw withdrawal thresholds to mechanical stimulation using calibrated von Frey filaments were used as measurement of neuropathic pain-like behaviors.

[3] = tested on: BH4 production in human peripheral blood mononuclear cells (PBMCs); assay: hPBMC assay, inhibition of BH4 production by LC-MS (anti-CD3/anti-CD28 stimulated); type: cell-based; details: PBMC, read-out: hPBMC IC50
Method: hPBMC Assay: PBMCs were either purchased or isolated from fresh human blood and used either as a fresh preparation or frozen for later use. The assay system was prepared by pre-treating the assay plates overnight with a solution containing anti-human CD3 antibody. Human PBMCs were suspended in assay medium and plated into the assay plates at a density of 1-4×10^5 cells per well. The desired concentration of the test compound was added to each well. A solution of human anti-CD28 antibody was also added to each well. Plates were incubated for 12-48 hours at 37° C. and 5% CO2. Assay plates were centrifuged for 5-15 minutes at 1-3000 RMP and supernatants were removed. The cells were lysed, sealed and used directly or frozen at −80° C. LC-MS was used to quantify the amount of inhibition of BH4 production.
PBMCs were either purchased or isolated from fresh human blood and used either as a fresh preparation or frozen for later use. The assay system was prepared by pre-treating the assay plates overnight with a solution containing anti-human CD3 antibody. Human PBMCs were suspended in assay medium and plated into the assay plates at a density of 1-4×10^5 cells per well. The desired concentration of the test compound was added to each well. A solution of human anti-CD28 antibody was also added to each well. Plates are incubated for 12-48 hours at 37° C. and 5% CO2. Assay plates were centrifuged for 5-15 minutes at 1-3000 RMP and supernatants were removed. The cells were lysed, sealed and used directly or frozen at −80° C.

[4] = tested on: neuropathic pain-like behaviors after chronic constriction injury (CCI); assay: Behavioral pharmacology model: chronic constriction injury of the sciatic nerve (CCI), paw withdrawal threshold, von Frey filaments; type: in vivo; details: rat, oral gavage, mechanical endpoint, 4 hrs
Method: as §1, §2

[5] = tested on: BH4 levels in SK-N-BE (2) cells; assay: SKN-N-BE (2) cellular assay, BH4 levels by LC-MS; type: cell-based; details: Homo sapiens, SKNBE2, read-out: SK-N-BE(2) IC50, SK-N-BE (2) cells, BH4 levels by LC-MS

Chain of SNAP-hSPR (sepiapterin reductase, SPR) (P35270 whole entry): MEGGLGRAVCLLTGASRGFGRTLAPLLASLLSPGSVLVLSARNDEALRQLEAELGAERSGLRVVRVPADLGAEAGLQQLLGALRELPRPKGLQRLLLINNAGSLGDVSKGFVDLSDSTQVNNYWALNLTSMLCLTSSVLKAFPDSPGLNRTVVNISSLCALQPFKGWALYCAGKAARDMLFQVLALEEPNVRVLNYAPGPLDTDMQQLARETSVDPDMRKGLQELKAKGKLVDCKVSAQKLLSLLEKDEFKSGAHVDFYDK

Row | Structure (SMILES) | IC50 [1] | Behavior Significant effect ([2]; 10 mpk QD 3 days) | IC50 [3] | Behavior Significant effect ([2]; 15 mpk QD 3 days) | Behavior Significant effect ([4]; 10 mpk QD 3 days) | Behavior Significant effect ([4]; 9.5 mpk QD 3 days) | Behavior Significant effect ([2]; 20 mpk QD 3 days) | IC50 [5]
1 | Cc1c(C(=O)N2CCN(C3CCC3(F)F)CC2)nnn1-c1nn2cccc2c(=O)[nH]1 (stereo not drawn) [Q-1204] | 0.001 µM | yes | 0.017 µM |  |  |  |  | 
2 | Cc1c(C(=O)N2CC3CC(C2)N3C2CC2)cnn1-c1nn2cccc2c(=O)[nH]1 [Q-1195] | 0.002 µM |  | 0.047 µM | yes |  |  |  | 
3 | Cc1c(C(=O)N2CC(c3ccnc(F)c3)C2)cnn1-c1nn2cccc2c(=O)[nH]1 [Q-1133] | 0.002 µM |  | 0.022 µM |  | yes |  |  | 
4 | Cc1c(C(=O)N2CCN(C3CC(F)(F)C3)CC2)cnn1-c1nn2cccc2c(=O)[nH]1 [Q-1169] | 0.001 µM |  | 0.077 µM |  |  | yes |  | 
5 | Cc1c(C(=O)N2CCC(c3nc(C#N)co3)CC2)cnn1-c1nn2cccc2c(=O)[nH]1 [Q-1127] | 0.001 µM |  | 0.015 µM |  |  |  | yes | 
6 | Cc1c(C(=O)N2CCN(C3CC(F)(F)C3)CC2)nnn1-c1nn2cccc2c(=O)[nH]1 [Q-1245] | 0.001 µM |  | 0.026 µM |  |  | yes |  | 
7 | Cc1c(C(=O)N2CCC2c2ccc(F)nc2)cnn1-c1nn2cccc2c(=O)[nH]1 (stereo not drawn) [Q-1242] | 0.005 µM | yes | 0.032 µM |  |  |  |  | 
8 | Cc1c(C(=O)N2CCN(C(C)C(F)(F)F)CC2)cnn1-c1nc2c(c(=O)[nH]1)CCC2 (stereo not drawn) [Q-1054] | 0.001 µM |  | 0.06 µM |  |  |  |  | 0.028 µM
9 | Cc1c(C(=O)N2CCC(C(O)C(F)(F)F)CC2)cnn1-c1nn2cccc2c(=O)[nH]1 (stereo not drawn) [Q-1066] | 0.001 µM |  | 0.082 µM |  |  |  |  | 0.3 µM
10 | Cc1c(C(=O)N2CCC3OCCCC3C2)cnn1-c1nn2cccc2c(=O)[nH]1 (stereo not drawn) [Q-0917] | 0.003 µM |  | 0.1 µM |  |  |  |  | 0.7 µM
11 | Cc1c(C(=O)N2CCC3(CC2)CC3)cnn1-c1nc2c(c(=O)[nH]1)CCC2 [Q-0635] | 0.002 µM |  | 0.054 µM |  |  |  |  | 0.1 µM
12 | Cc1c(C(=O)N2CC3(CCCC3)C2)cnn1-c1nn2cccc2c(=O)[nH]1 [Q-0813] | 0.001 µM |  | 0.065 µM |  |  |  |  | 0.1 µM
13 | Cc1c(C(=O)N2CCN(c3ccc(Cl)cn3)CC2)cnn1-c1nn2cccc2c(=O)[nH]1 [Q-0835] | 0.002 µM |  | 0.039 µM |  |  |  |  | 0.1 µM
14 | Cc1c(C(=O)N2CC3(CSC3)C2)cnn1-c1nn2cccc2c(=O)[nH]1 [Q-0822] | 0.002 µM |  | 0.13 µM |  |  |  |  | 0.4 µM
15 | Cc1c(C(=O)N2CCN3CC(F)(F)C[C@H]3C2)cnn1-c1nn2cccc2c(=O)[nH]1 [Q-0906] | 0.003 µM |  | 0.19 µM |  |  |  |  | 0.8 µM
16 | Cc1c(C(=O)N2CCC(C(F)F)CC2)cnn1-c1nn2cccc2c(=O)[nH]1 [Q-0926] | 0.001 µM |  | 0.045 µM |  |  |  |  | 0.2 µM
